Experiments:
[1] = target: T1, ERα ligand-binding domain (Homo sapiens, UniProt P03372); experiment: TR-FRET ligand binding assay, isolated LBD of ERα
T1 construct: purchased Invitrogen
T1 sequence (P03372 311-547 limits assumed): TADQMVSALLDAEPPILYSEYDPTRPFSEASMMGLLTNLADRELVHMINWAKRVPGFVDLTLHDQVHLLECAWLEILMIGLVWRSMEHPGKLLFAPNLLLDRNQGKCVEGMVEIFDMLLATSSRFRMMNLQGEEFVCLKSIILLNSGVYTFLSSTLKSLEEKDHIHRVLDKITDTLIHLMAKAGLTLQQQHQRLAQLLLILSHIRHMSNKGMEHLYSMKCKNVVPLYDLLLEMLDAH
Procedure: (§1) A modified LanthaScreen TR-FRET alpha/beta assay was performed, according to the manufacturer’s protocol (Invitrogen, Carlsbad, […]), to determine the binding affinity to the isolated LBD. […] Measurements were carried out on a multimode plate reader, Tecan Spark (Tecan, Männedorf, Switzerland). Calculations and visualization were performed with GraphPad Prism 8.0 (GraphPad Software, San Diego, CA, USA).

[2] = target: T2, ERβ ligand-binding domain (Homo sapiens, UniProt Q92731); experiment: TR-FRET ligand binding assay, isolated LBD of ERβ
T2 construct: purchased Invitrogen
T2 sequence (Q92731 264-498 limits assumed): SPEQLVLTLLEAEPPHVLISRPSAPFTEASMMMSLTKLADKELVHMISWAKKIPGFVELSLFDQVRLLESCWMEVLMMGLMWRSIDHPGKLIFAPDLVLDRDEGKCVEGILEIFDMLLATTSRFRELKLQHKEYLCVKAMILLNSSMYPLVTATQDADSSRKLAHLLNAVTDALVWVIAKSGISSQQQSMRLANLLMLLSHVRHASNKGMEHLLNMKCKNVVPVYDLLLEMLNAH
Procedure: as §1

[3] = system: SKBr3 cells; experiment: MTT assay of metabolic activity, SKBr3; format: cell-based, human; conditions: 72 h, MTT
Procedure: The GW7604-Alk-PtCl3 complexes (with exclusion of GW7604-Prop-PtCl3) were investigated for cytotoxic effects in SKBr3 (ER-negative, COX-2-positive, Figure 6), MCF-7 (ERα-positive, COX-negative, Figure 6), and noncancerous TSA-201 (human embryonal kidney) cells at concentrations of 10–30 μM using an established MTT (3-(4,5-dimethylthiazol-2-yl)-2,5-diphenyltetrazolium bromide) assay.[60],[69]
After incubation for 72 h, the amounts of surviving, metabolically active cells were quantified based on their ability to transform the water-soluble yellow dye MTT to a purple formazan, which can be analyzed by UV–vis spectroscopy.
The exponentially growing cells were seeded at a density of 1750 (MCF-7), 2000 (SKBr3), and 1250 (TSA-201) cells/well into clear flat-bottom 96-well plates in triplicate. Following 24 h of incubation at 37 °C in a humidified atmosphere (5% CO2/95% air), the compounds [freshly prepared stock solutions in DMF, diluted with DMEM to the desired concentration (final DMF concentration of 0.1% (v/v))] were added to reach the indicated concentrations. After another 72 h of incubation, the cellular metabolic activity was measured employing an MTT assay. By adding predissolved MTT reagent in PBS at a final concentration of 0.5 mg/mL, the metabolic activity can be determined via an enzymatic conversion to a purple formazan salt. After 3 h, the medium was aspirated, and 200 μL of DMSO was added to dissolve the formed formazan crystals. The absorbance was measured at 570 and 690 nm (turbidity assessment) using an EnSpire plate reader (PerkinElmer, Waltham, MA, USA). Solvent-treated cells without a compound served as the positive control. Metabolic activity was calculated by the following equation [drawing 1]

[4] = system: SKBr3 cells; experiment: Cellular uptake (platinum by HR-CS-AAS), SKBr3; format: cell-based, human; conditions: 8 h
Procedure: In order to reach the DNA, the complexes must first pass through the cell membrane and penetrate into the nuclei. Therefore, the cellular uptake kinetics of GW7604-Alk-PtCl3 complexes were studied using the example of GW7604-Pent-PtCl3. This complex and Cisplatin, respectively, were incubated at a concentration of 20 μM with MCF-7 or SKBr3 cells. After various time points [i.e., 0 (3 min), 0.5, 1, 2, 4, and 8 h], cell pellets were prepared, and the platinum content was quantified by high-resolution continuum source atomic absorption spectrometry (HR-CS-AAS).[52]
After thawing of the cell/nuclei pellets, they were resuspended in ultrapure water (Siemens LaboStar, Günzburg, Germany; 300 μL) and lyzed with a sonotrode (Bandelin Sonoplus, Berlin, Germany; parameters 20 s, 9 cycles, 80% power). Graphite furnace (GF) AAS was used to quantify the lysates concerning their content of platinum (λ = 265.9450 nm). For this purpose, a contrAA 700 High-Resolution-Continous Source AAS (Analytik Jena, Jena, Germany) was employed, while atomization took place by electrothermal heating of graphite tubes with an inserted platform (Analytik Jena, Jena, Germany). A time–temperature program reported in the literature[25] was followed with minor adjustments. The liquid samples kept in 0.5 mL polystyrene vials (Gesellschaft für Analysentechnik, Salzwedel, Germany) were injected directly into the pyrolytically coated tubes using an MPE 60 autosampler (Analytik Jena, Jena, Germany). Throughout the measurements, argon (Alphagaz 1, 99.999%, Air Liquide, Düsseldorf, Germany) served as the purge and protective gas. The spectrometer was monitored with the ASpect CS software, version 2.3.1.0 (Analytik Jena, Jena, Germany). For all runs, the mean integrated absorbance was determined after three injections of each standard or sample. Calibration was performed by an appropriate dilution of a solution of Cisplatin (Sigma-Aldrich, Taufkirchen, Germany) obtaining five standards (2–10 μg/L, R^2 ≥ 0.982). Each cell/nuclei lysate was quantified concerning its protein content following the method of Bradford[71] in order to express the uptake as the amount of compound (pmol) in the lysate relative to its protein mass (mg). Therefore, solutions of Albumin fraction V (Carl Roth, Karlsruhe, Germany) diluted with ultrapure water were adduced for the calibration (six standards, 50–300 μg/mL, R^2 ≥ 0.996). […] All standards and lysates were measured in duplicate. After incubating for 5 min at rt, the absorbance (λ = 595 nm) was read on a microplate reader (Tecan Safire 2, Männedorf, Switzerland). […]

`CCC(=C(c1ccc(O)cc1)c1ccc(C=CC(=O)OCCC[CH]2[CH2][Pt-]2([Cl])([Cl])[Cl])cc1)c1ccccc1.[K+]` (mixture of isomers) [GW7604-Pent-PtCl3, Potassium trichlorido[η^2-(pent-4-en-1-yl (E)-3-(4-((E/Z)-1-(4-hydroxyphenyl)-2-phenylbut-1-en-1-yl)phenyl)acrylate)]platinate(II)] was tested, and the “RBA (ERα)” value ([1]; RBA(E2) = 100%) was 7.29%, the IC50 ([1]; read-out: IC50 (ERα), displacement from the LBS) was 4.81 nM and the “RBA (ERβ)” value ([2]; RBA(E2) = 100%) was 6.02%. For the same compound, the IC50 ([2]; read-out: IC50 (ERβ), displacement from the LBS) was 3.99 nM, the IC50 [3] was > 30000 nM and the “platinum amount in SKBr3 relative to MCF-7 cells” value ([4]; 20 μM) was “about one-twelfth”. It also gave an intracellular platinum amount ([4]; SKBr3, 20 μM) of 67 pmol/mg.

Reference: publication PMC10983001, “Development of Cytotoxic GW7604-Zeise’s Salt Conjugates as Multitarget Compounds with Selectivity for Estrogen Receptor- Positive Tumor Cells” (Journal of Medicinal Chemistry, 2024)
